These results are taken from patent publication US10743543B2, “Botanical disinfection composition, disinfectant and preparation method thereof” (priority 2016, dated 2020).

One assay has as its system pathogenic bacteria. The settings on record: general statement on antibacterial properties; cited from earlier work.
The test system of the next assay is Pseudomonas auerginosa. The experiment in a line: Time needed to meet disinfection requirements, Pseudomonas aeruginosa. In kind it is cell-based. The following applies: concentration: ethanol 70%, 1210 500 ppm, Embodiment 11 stock.
The next assay has as its system Escherichia coli. The experiment in a line: Time needed to meet disinfection requirements, Escherichia coli. The following applies: concentration: ethanol 70%, benzalkonium bromide 1:1000, 1210 250 ppm, Embodiment 11 stock. The assay is classed as cell-based.
Assay [1] deals with Mycobacterium tuberculosis. The following applies: concentration: ethanol 70%.
In another assay the test system is Staphylococcus aureus. The experiment in a line: Time needed to meet disinfection requirements, Staphylococcus aureus. The assay is classed as cell-based. The settings on record: concentration: ethanol 70%, benzalkonium bromide 1:1000, 1210 250 ppm, Embodiment 11 stock.
Another assay concerns Candida albicans. The experiment in a line: Time needed to meet disinfection requirements, Candida albicans. The assay is classed as cell-based. The following applies: concentration: ethanol 70%, iodophor 40 mg/L, Embodiment 11 stock.

With `O=C(O)CCCCCCCC(=O)O` [Azelaic acid, azelaic acid], the bactericidal concentration with pathogenic bacteria is on record as 1 mol/L.
For the compound `CCO` [Ethanol], the “Time needed for meeting disinfection requirements” value is given as 1 min with Pseudomonas auerginosa; 0.5. min with Escherichia coli; 5 min in assay [1]; 5 min in the assay on Staphylococcus aureus; 1 min with Candida albicans.
As for Benzalkonium bromide, the “Time needed for meeting disinfection requirements” value with Escherichia coli was 10 min; with Staphylococcus aureus, 5 min.
